# Results taken from patent US5451571A (The Cleveland Clinic Foundation, priority 1994, dated 1995).
# No end group written: not given here.
# Assays:
# [1] = test system: spontaneously hypertensive rats (SHR); experiment: Blood angiotensin peptides (RIA) after i.v. Ang I in conscious SHR with enzyme inhibitors; type: in vivo, rat; settings: SHR
# Experimental: (§1) All experiments were carried out in strict adherence to the principles sponsored by the American Physiological Society. Male 16-week-old SHR(319±4 gm) and WKY(315±4 gm) controls (Charles River, Wilmington, Mass.) were housed in rooms maintained on a 12 hr light-dark cycle. Animals ate a solid diet of rat chow (Purina, Bedford, Ohio) and had free access to water. Cannulas (PE-50 and PE-10, Clay Adams Becton Dickinson, Parsippany, N.J.) were implanted into a femoral artery and vein using aseptic conditions in rats anesthetized with 1% halothane 24 hours beforehand. The free ends of the cannulas were tunneled under the skin and externalized at the back of the neck.
# (§2) Conscious rats were divided into five groups. Group I (n=4 SHR and 4 WKY) received an i.v. injection of 0.9% NaCl. Group II (n=4 SHR and 4 WKY) was given an i.v. injection of enalaprilat (MK-422,2 mg/kg). Group III (n=4 SHR and 4 WKY) was injected with (N-{N-[1-(S)-carboxy-3-phenylpropyl]-(S)-phenylalanyl}-(S)-isoserine) at a dose of 15 mg/kg. […] Group IV (n=4 SHR and 4 WKY) received both MK-422 (2 mg/kg) and SCH 39,370 (15 mg/kg). Group V (n=3 SHR and 3 WKY) were given MK- 422 (2 mg/kg) and Z-prolyl-prolinal (5 mg/kg), a specific inhibitor of prolyl endopeptidase (Friedman TC, Orlowski M, Wilk S: Prolyl Endopeptidase: Inhibition in vivo by N-benzyloxycarbonyl-prolyl-prolinal. J. Neurochem. 42:237-241,1984). Either saline (vehicle) or the enzyme inhibitors were administered 20 minutes before an i.v. injection of 0.2 ml of Ang I (2 nmol) in heparinized saline. Serial samples of arterial blood (0.2 ml) were rapidly collected into ice-chilled tubes containing 5 ml of 80% ethanol/0.1N HCL every 15-30 sec before and after injection of Ang I. The amount of blood removed in each sample was replaced with an equal volume of saline. The dead space (0.08 ml) of the femoral artery catheter was cleared of any remaining saline or blood before obtaining the samples.
# (§3) Peptide Extraction and Analyses: Samples were centrifuged at 5,000 g for 20 minutes; the supernatant was stored for 12 hours at -20° C. After a second centrifugation step (10,000 g, 20 min) the supernatant was diluted 1:1 (V:V) with 1% heptaflurobutyric acid (HFBA), stored for 4-6 […] hours at 4° C., and centrifuged again at 15,000 g. This supernatant was further diluted 1:4 with 0.2% HFBA and concentrated on a Sep-Pak Vac Cartridge (Millipore Co., Milford, Mass.) activated beforehand with 3 ml of 60% acetonitrile/0.2% HFBA, 3 ml of 0.1% bovine serum albumin in 0.2% HFBA, and 5 ml of HFBA. After application of the supernatant, the column was washed with 10 ml of 0.2% HFBA. Angiotensin peptides were eluted with 8 ml of 60% acetonitrile/0.2% HFBA. Fractions were evaporated to dryness in a vacuum centrifuge (Savant Instrument Inc., Hicksville, N.Y.) for measurements by radioimmunoassay (RIA). Different aliquots of the samples were assayed to ensure linearity. Peptide recovery for Ang I added to the acid ethanol solution prior to blood sample averaged 85±4%, n=6, SFM): peptide values were not corrected for recovery. Moreover, no in vitro conversion of Ang I into either Ang-(1-7) or Ang II was observed.
# (§4) The RIAs employed by the inventors to determine concentrations of Ang I, Ang II, and Ang-(1-7) are described in detail elsewhere. See, Chappell MC, Brosnihan KB, Diz DI, Ferrario CM: Identification of Angiotensin-(1-7) in Rat Brain: Evidence for Differential Processing of Agiotensin Peptides. J. Biol. Chem. […]:16518-16523,1989; and, Kohara K, Brosnihan KB, Chappell MC, Khosla MC, Ferrario CM: Angiotensin-(1-7): A Member of Circulating Angiotensin Peptides. Hypertension 17:131-138, 1991. […] The sensitivity of the Ang I assay (defined as twice the minimum detection level) averaged 5 fmol/tube. The Ang II antibody was produced by the inventors. […] The sensitivity of the Ang II RIA is 0.5 fmol/tube. The antibody of Ang-(1-7) (Core No. 1) was obtained in the inventors laboratory. […]
# [2] = test system: Wistar Kyoto (WKY) rats; experiment: Blood angiotensin peptides (RIA) after i.v. Ang I in conscious WKY with enzyme inhibitors; type: in vivo, rat
# Experimental: as §1, §2, §3, §4
# [3] = target: T1, angiotensin converting enzyme (ACE) (Canis lupus familiaris, UniProt A0A8I3S3I6); experiment: ACE activity assay (Hip-His-Leu, fluorometric) in dog brain tissue homogenates; type: biochemical; settings: 10 μM MK 422; read-out: inhibition of product released (ACE activity)
# T1 construct: The ACE activity was determined by incubating 10 μl of the supernatants; from tissue; host or cells: dog brainstem, spinal cord, choroid plexus and neurohypophysis punches
# T1 sequence (A0A8I3S3I6 31-1241): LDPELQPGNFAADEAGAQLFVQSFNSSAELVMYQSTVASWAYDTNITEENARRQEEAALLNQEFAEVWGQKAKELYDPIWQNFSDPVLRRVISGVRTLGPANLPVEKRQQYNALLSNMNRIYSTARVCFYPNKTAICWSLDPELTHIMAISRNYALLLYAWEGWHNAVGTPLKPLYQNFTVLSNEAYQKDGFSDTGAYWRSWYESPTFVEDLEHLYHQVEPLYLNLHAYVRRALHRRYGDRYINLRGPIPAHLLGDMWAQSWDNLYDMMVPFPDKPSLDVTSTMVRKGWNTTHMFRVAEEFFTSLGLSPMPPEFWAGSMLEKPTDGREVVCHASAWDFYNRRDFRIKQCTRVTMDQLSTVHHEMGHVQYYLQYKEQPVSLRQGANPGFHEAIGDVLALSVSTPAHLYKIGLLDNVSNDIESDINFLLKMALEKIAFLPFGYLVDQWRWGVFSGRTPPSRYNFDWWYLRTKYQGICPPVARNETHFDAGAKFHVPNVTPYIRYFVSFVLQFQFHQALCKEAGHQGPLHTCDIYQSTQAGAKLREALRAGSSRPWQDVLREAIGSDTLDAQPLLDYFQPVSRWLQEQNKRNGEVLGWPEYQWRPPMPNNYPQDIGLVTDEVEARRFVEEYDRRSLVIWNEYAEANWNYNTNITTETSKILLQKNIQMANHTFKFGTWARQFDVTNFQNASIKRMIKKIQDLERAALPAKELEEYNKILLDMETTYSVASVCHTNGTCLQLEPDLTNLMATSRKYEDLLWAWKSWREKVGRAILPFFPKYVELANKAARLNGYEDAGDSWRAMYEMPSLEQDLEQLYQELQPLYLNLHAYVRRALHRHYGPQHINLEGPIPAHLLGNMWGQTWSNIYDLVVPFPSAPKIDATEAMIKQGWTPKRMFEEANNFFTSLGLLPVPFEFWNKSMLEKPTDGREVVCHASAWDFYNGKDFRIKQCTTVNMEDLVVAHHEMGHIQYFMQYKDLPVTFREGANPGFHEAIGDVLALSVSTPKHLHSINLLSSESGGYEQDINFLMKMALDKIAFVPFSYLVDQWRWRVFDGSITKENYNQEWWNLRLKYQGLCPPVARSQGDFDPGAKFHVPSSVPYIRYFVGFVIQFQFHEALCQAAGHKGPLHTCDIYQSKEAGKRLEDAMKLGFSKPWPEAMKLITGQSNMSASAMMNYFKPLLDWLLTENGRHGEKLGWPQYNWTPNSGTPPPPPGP
# Experimental: Larger tissue samples were homogenized to a final concentration of 100 mg tissue ml/buffer. The homogenates were centrifuged at 18,000 g for two minutes at 4° C. The ACE activity was determined by incubating 10 μl of the supernatants with 500 μl of an assay solution containing 5 mM Hip-His-Leu (Sigma Chemical, St. Louis, Mo., USA) in 0.4 M sodium borate buffer, pH 8.3, and 0.9 M NaCl for 15 minutes at 37° C.) (Santos R. A. S., Krieger, E. M., Greene, L. J., An Improved Fluorometric Assay of Rat Serum and Plasma Converting Enzyme. […] The product His-Leu was measured fluorometrically (365 nm excitation, 495 emission; Aminco spectrofluorometer, American Instruments, Silver Springs, Md., USA). In punches obtained from the brainstem, neurohypophysis, and choroid plexus, the rate of reaction was linear over a 20-minute period and with the volume of the sample assayed (5-15 ul). Under these conditions, hydrolysis of the product His-Leu (Sigma) was less than 6% as evaluated indirectly fluorometry (Santos, et al. supra). […] Tissue ACE specific activity was expressed as units corresponding to 1 nmol/min/mg protein.
# [4] = target: T1, angiotensin converting enzyme (ACE); experiment: Tissue ACE activity in dog brain six hours after i.v. MK 422; type: in vivo; settings: six hours after MK 422 10 mg/kg i.v.
# Experimental: Experiments were performed on fourteen mongrel dogs weighing 16±2 kg and anesthetized with sodium pentobarbital (30 mg/kg i.v.). […] Ten of the fourteen dogs were given a lethal dose of sodium pentobarbital, and the brain and thoracic portion of the spinal cord (C6-T3) were excised immediately. The brain was removed from four other dogs six hours after a single injection of MK 422 (enalaprilat) at a dose of 10 mg/kg i.v.
# Coronal sections (2000 μm thick) from either the brainstem or the spinal cord were laid on a frozen Petri dish placed under the operating microscope. […] Punches from coronal sections of the intermediolateral column of the spinal cord were obtained between C6 and T3. Blocks of tissue were also taken from the area postrema at the obex, the neurohypophysis, and the choroid plexus in the fourth ventricle. Remaining coronal tissue sections were analyzed separately. All tissue samples were kept on dry ice and stored at -70° C. until assayed.
# The ACE activity and angiotensin metabolism were measured in tissue samples obtained from five control and four MK 422-treated dogs.
# Larger tissue samples were homogenized to a final concentration of 100 mg tissue ml/buffer. The homogenates were centrifuged at 18,000 g for two minutes at 4° C. The ACE activity was determined by incubating 10 μl of the supernatants with 500 μl of an assay solution containing 5 mM Hip-His-Leu (Sigma Chemical, St. Louis, Mo., USA) in 0.4 M sodium borate buffer, pH 8.3, and 0.9 M NaCl for 15 minutes at 37° C.) (Santos R. A. S., Krieger, E. M., Greene, L. J., An Improved Fluorometric Assay of Rat Serum and Plasma Converting Enzyme. […] The product His-Leu was measured fluorometrically (365 nm excitation, 495 emission; Aminco spectrofluorometer, American Instruments, Silver Springs, Md., USA). […] Under these conditions, hydrolysis of the product His-Leu (Sigma) was less than 6% as evaluated indirectly fluorometry (Santos, et al. supra). […] Tissue ACE specific activity was expressed as units corresponding to 1 nmol/min/mg protein.
# [5] = test system: prolylendopeptidase; experiment: 125I-Ang-(1-7) production from 125I-Ang I in dog hypothalamus homogenates (HPLC); type: biochemical
# Experimental: As a result of these discoveries, the enzyme(s) involved in the production of Ang-(1-7) in homogenates (20 mM TRIS HCl buffer, pH 7.5) of dog hypothalamus were evaluated.
# [6] = test system: NG108 cells; experiment: Ang-(1-7) production from Ang I in NG108 cells; type: cell-based
# [7] = test system: brain punch homogenate from the A2 region; type: biochemical, dog; settings: pH 7.5
# Source text: To study the metabolism of angiotensin in brain punch homogenates, ^125 I-labelled Ang I and Ang II (New England Nuclear, Boston, Mass., USA) were purified initially to remove the peptidase inhibitor trasylol by reverse phase high performance liquid chromatography (HPLC) using a Nova-Pak C column (Waters Associates, Milford, Mass., USA). Peptides were eluted isocratically with 33.6% acetonitrile (Burdick and Jackson, American Scientific Products, Columbus, Ohio, USA) in 0.13% heptafluorbutyric acid (HFBA; Sequenal grade, Pierce, Rockford, Ill., USA) at a flow rate of 1 ml/min. The effluent (0.25 ml/fraction) was collected in tubes precoated with bovine serum albumin (BSA; Pentex, Miles Scientific, Naperville, Ill., USA). After evaporation in a vacuum centrifuge (Savant, Farmingdale, N.Y., USA), the purified peptides were redissolved in water.
# The metabolism of ^125 I-Ang I and ^125 I-Ang II was studied by incubating 10 μl of brain homogenates with 190 μl of an assay solution containing 50 pM labelled standards in 20 mM Tris HCl buffer, pH 7.5, and 0.01% BSA for 2 to 15 minutes at 37° C. The reactions were stopped by the addition of 100 μl of 32% acetonitrile containing 0.13% HFBA, followed by centrifugation at 18,000 g for 2 minutes. […]
compound,measurement,setting,value
"C[C@H](N[C@@H](CCc1ccccc1)C(=O)O)C(=O)N1CCC[C@H]1C(=O)O [MK 422, enalaprilat]",increase of peak Ang-(1-7) over values found in control rats,[1]; MK-422 2 mg/kg,three-fold
same,Ang II formation / production,[1]; after Ang I 2 nmol i.v.,eliminated
same,increase of peak Ang-(1-7) over values found in control rats,[2]; MK-422 2 mg/kg,two-fold
same,Ang II formation / production,[2]; after Ang I 2 nmol i.v.,eliminated
same,inhibition at 10 µM,[3],98%
same,ACE activity in homogenates from the choroid plexus,[4],14.9±0.6 U
same,ACE activity in other regions of the brainstem,[4],did not change
same,ACE activity in the A2 region (between -2 and +4 mm of the obex),[4]; untreated controls 22.5±1.6 U,16.7±1.7 U
CC(C)C[C@H](NP(=O)(O)O[C@@H]1O[C@@H](C)[C@H](O)[C@@H](O)[C@H]1O)C(=O)N[C@@H](Cc1c[nH]c2ccccc12)C(=O)O [Phosphoramidon],inhibition of Ang-(1-7) formation,[5],12%
same,production of Ang-(1-7) in the presence of the inhibitor,[5]; canine hypothalamic homogenates,not inhibited
same,production of Ang-(1-7) in the presence of the inhibitor,[6],not inhibited
"^125 I-Ang II: 125I-labelled Ang II used as substrate (DRVYIHPF; also: 125I label; UniProt P01019 25-32, looked up)",major / primary metabolic product of the labelled peptide,[7],Ang-(1-7)
